In PubChem BioAssay AID2647 (Sanford-Burnham Center for Chemical Genomics, 2010) one finds cytotoxicity with TRAIL and cytotoxicity data, which are given here for one compound.

The experiment relates to MDA-MB-435/MDR TRAIL potentiation, ATPlite luminescence, 24 h. As to the kind of experiment: PubChem AID 2647.

Regarding `CSc1nc(-c2ccc(C)cc2)nc(C(Cl)Cl)n1`, where the note is “at 10 µM (top of the series)”, the cytotoxicity with TRAIL was 84%. The cytotoxicity (compound alone without TRAIL, at 10 µM, stronger effect = higher value) worked out at 1%.
